Experimental data from patent US5210193A, “Piperazine derivatives” (American Cyanamid Company, priority 1990, dated 1993).
Converted amounts (≈) assume the structure as drawn. Like-named read-outs stand apart in the source and are kept apart here.

Columns and labels:
Assay in all cases: in vitro antibacterial MIC, agar plate dilution
Format in all cases: cell-based
[1] = system: Escherichia coli CMC 84-50; conditions: Escherichia coli, CMC8450, 18 h, 35° C., read-out: MIC
How it was run: (§1)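 Agar plate dilution on Mueller-Hinton agar, inoculum about 10^4 CFU per spot applied with a Steers replicator. MIC (mcg/ml) is the lowest compound concentration preventing visible growth after 18 h at 35 °C.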

[2] = system: Escherichia coli CMC 84-11; conditions: Escherichia coli, CMC8411, 18 h, 35° C., read-out: MIC
How it was run: as §1

[3] = system: Enterobacter cloacae VGH 84-39; conditions: Enterobacter cloacae, VGH8439, 18 h, 35° C., read-out: MIC
How it was run: as §1

[4] = system: Morganella morganii CMC 84-38; conditions: Morganella morganii, CMC8438, 18 h, 35° C., read-out: MIC
How it was run: as §1

[5] = system: Klebsiella pneumoniae MOR 84-24; conditions: Klebsiella pneumoniae, MOR8424, 18 h, 35° C., read-out: MIC
How it was run: as §1

[6] = system: Staphylococcus aureus ATTC 29213; conditions: 35° C.
How it was run: as §1

[7] = system: Staphylococcus aureus VGH 84-47; conditions: Staphylococcus aureus, VGH8447, 18 h, 35° C., read-out: MIC
How it was run: as §1

[8] = system: Escherichia coli ATCC 25922; conditions: Escherichia coli, ATCC25922, 18 h, 35° C., read-out: MIC
How it was run: as §1

[9] = system: Proteus rettgeri IO 83-21; conditions: Providencia rettgeri, IO8321, 18 h, 35° C., read-out: MIC
How it was run: as §1

[10] = system: Klebsiella pneumoniae IO 83-5; conditions: Klebsiella pneumoniae, IO835, 18 h, 35° C., read-out: MIC
How it was run: as §1

[11] = system: Streptococcus faecalis VGH 84-65; conditions: Enterococcus faecalis, VGH8465, 18 h, 35° C., read-out: MIC
How it was run: as §1

[12] = system: Streptococcus faecalis VGH 84-69; conditions: Enterococcus faecalis, VGH8469, 18 h, 35° C., read-out: MIC
How it was run: as §1

[13] = system: Staphylococcus aureus CMC 83-131; conditions: Staphylococcus aureus, CMC83131, 18 h, 35° C., read-out: MIC
How it was run: as §1

Escherichia coli LL 311 = conditions: Escherichia coli, LL311, 18 h, 35° C., read-out: MIC
How it was run: as §1

[14] = system: Escherichia coli VGH 84-19; conditions: Escherichia coli, VGH8419, 18 h, 35° C., read-out: MIC
How it was run: as §1

[15] = system: Staphylococcus aureus K 82-26; conditions: Staphylococcus aureus, K8226, 18 h, 35° C., read-out: MIC
How it was run: as §1

[16] = system: Serratia marcescens CMC 83-74; conditions: Serratia marcescens, CMC8374, 18 h, 35° C., read-out: MIC
How it was run: as §1

[17] = system: Staphylococcus aureus Smith; conditions: Staphylococcus aureus, 18 h, 35° C., read-out: MIC
How it was run: as §1

[18] = system: Serratia marcescens VGH 84-30; conditions: Serratia marcescens, VGH8430, 18 h, 35° C., read-out: MIC
How it was run: as §1

[19] = system: Staphylococcus aureus VGH 84-45; conditions: Staphylococcus aureus, VGH8445, 18 h, 35° C., read-out: MIC
How it was run: as §1

[20] = system: Serratia marcescens IO 83-63; conditions: IO8363, 18 hours, 35° C.
How it was run: as §1

Citrobacter div. K 82-24 = conditions: Citrobacter, DIV.K8224, 18 h, 35° C., read-out: MIC
How it was run: as §1

[21] = system: Enterobacter cloacae K 84-10; conditions: Enterobacter cloacae, K8410, 18 h, 35° C., read-out: MIC
How it was run: as §1

[22] = system: Pseudomonas aeruginosa VGH 84-3; conditions: Pseudomonas aeruginosa, VGH843, 18 h, 35° C., read-out: MIC
How it was run: as §1

[23] = system: Streptococcus faecalis UCI 85-30; conditions: Enterococcus faecalis, UCI8530, 18 h, 35° C., read-out: MIC
How it was run: as §1

[24] = system: Proteus rettgeri CMC 84-41; conditions: Providencia rettgeri, CMC8441, 18 h, 35° C., read-out: MIC
How it was run: as §1

[25] = system: Klebsiella pneumoniae CMC 84-31; conditions: Klebsiella pneumoniae, CMC8431, 18 h, 35° C., read-out: MIC
How it was run: as §1

[26] = system: Serratia marcescens MOR 84-41; conditions: Serratia marcescens, MOR8441, 18 h, 35° C., read-out: MIC
How it was run: as §1

[27] = system: Streptococcus faecalis CMC 83-120; conditions: Enterococcus faecalis, CMC83120, 18 h, 35° C., read-out: MIC
How it was run: as §1

[28] = system: Pseudomonas aeruginosa LL-1244; conditions: Pseudomonas aeruginosa, LL1244, 18 h, 35° C., read-out: MIC
How it was run: as §1

[29] = system: Providencia stuarti CMC 83-3; conditions: Providencia, CMC833, 18 h, 35° C., read-out: MIC
How it was run: as §1

[30] = system: Morganella morganii CMC 84-37; conditions: Morganella morganii, CMC8437, 18 h, 35° C., read-out: MIC
How it was run: as §1

[31] = Staphylococcus aureus, ATTC29213, 18 h, read-out: MIC

| SMILES | MIC [1] | MIC [2] | MIC [3] | MIC [4] | MIC [5] | MIC [6, 31] | MIC [7] | MIC [9] | MIC [10] | MIC [11] | MIC [12] | MIC [13] | MIC (Escherichia coli LL 311) | MIC [14] | MIC [15] | MIC [16] | MIC [17] | MIC [18] | MIC [19] | MIC [20] | other results |
| --- | --- | --- | --- | --- | --- | --- | --- | --- | --- | --- | --- | --- | --- | --- | --- | --- | --- | --- | --- | --- | --- |
| CCn1cc(C(=O)O)c(=O)c2cc(F)c(N3CCN(C)C(c4ccnn4C)C3)cc21 (centres unmarked) [Example 110, 1-Ethyl-6-fluoro-1,4-dihydro-7-[4-methyl-3-(1-methyl-1H-pyrazol-5-yl) -1-piperazinyl]-4-oxo-3-quinolinecarboxylic acid] | 4 µg/mL (≈ 9.67 µM) | 2 µg/mL (≈ 4.84 µM) | 8 µg/mL (≈ 19.3 µM) | 8 µg/mL (≈ 19.3 µM) | 16 µg/mL (≈ 38.7 µM) | 0.5 µg/mL (≈ 1.21 µM) | 1 µg/mL (≈ 2.42 µM) | 16 µg/mL (≈ 38.7 µM) | 16 µg/mL (≈ 38.7 µM) | 8 µg/mL (≈ 19.3 µM) | 16 µg/mL (≈ 38.7 µM) | 2 µg/mL (≈ 4.84 µM) | 2 µg/mL (≈ 4.84 µM) | 4 µg/mL (≈ 9.67 µM) | 16 µg/mL (≈ 38.7 µM) | > 16 µg/mL | 0.25 µg/mL (≈ 0.605 µM) | > 128 µg/mL | 0.5 µg/mL (≈ 1.21 µM) | > 16 µg/mL | MIC ([6]; 18 hours): 1 µg/mL (≈ 2.42 µM); MIC [8]: 1 µg/mL (≈ 2.42 µM); MIC (Citrobacter div. K 82-24): 8 µg/mL (≈ 19.3 µM); MIC [21]: 4 µg/mL (≈ 9.67 µM); MIC [22]: > 16 µg/mL; MIC [23]: > 16 µg/mL; MIC [24]: 4 µg/mL (≈ 9.67 µM); MIC [25]: 8 µg/mL (≈ 19.3 µM); MIC [26]: > 16 µg/mL; MIC [27]: 16 µg/mL (≈ 38.7 µM); MIC [28]: 128 µg/mL (≈ 310 µM); MIC [29]: > 16 µg/mL |
| CN1CCN(c2c(F)c(F)c3c(=O)c(C(=O)O)cn(C4CC4)c3c2F)CC1 [Example 111, 1Cyclopropyl-5,6,8-trifluoro-1,4-dihydro-7-(4-methyl-1-piperazinyl) -4-oxo-3-quinolinecarboxylic acid] | 0.004 µg/mL (≈ 0.0105 µM) | 0.015 µg/mL (≈ 0.0393 µM) | 0.004 µg/mL (≈ 0.0105 µM) | 0.008 µg/mL (≈ 0.021 µM) | 0.06 µg/mL (≈ 0.157 µM) | 0.25 µg/mL (≈ 0.656 µM) | 0.12 µg/mL (≈ 0.315 µM) | 0.008 µg/mL (≈ 0.021 µM) | 0.06 µg/mL (≈ 0.157 µM) | 4 µg/mL (≈ 10.5 µM) | 2 µg/mL (≈ 5.24 µM) | 0.25 µg/mL (≈ 0.656 µM) | 0.015 µg/mL (≈ 0.0393 µM) | 0.004 µg/mL (≈ 0.0105 µM) | 1 µg/mL (≈ 2.62 µM) | 4 µg/mL (≈ 10.5 µM) | 0.25 µg/mL (≈ 0.656 µM) | 2 µg/mL (≈ 5.24 µM) | 0.12 µg/mL (≈ 0.315 µM) | 0.25 µg/mL (≈ 0.656 µM) | MIC [30]: 0.03 µg/mL (≈ 0.0787 µM); MIC (Citrobacter div. K 82-24): 0.002 µg/mL (≈ 0.00524 µM); MIC [21]: 0.004 µg/mL (≈ 0.0105 µM); MIC [22]: 8 µg/mL (≈ 21 µM); MIC [23]: 2 µg/mL (≈ 5.24 µM); MIC [24]: 0.03 µg/mL (≈ 0.0787 µM); MIC [25]: 0.015 µg/mL (≈ 0.0393 µM); MIC [26]: 0.06 µg/mL (≈ 0.157 µM); MIC [27]: 2 µg/mL (≈ 5.24 µM); MIC [28]: 4 µg/mL (≈ 10.5 µM); MIC [29]: 4 µg/mL (≈ 10.5 µM) |
| O=C(O)c1cn(C2CC2)c2cc(N3CCNC(CF)C3)c(F)cc2c1=O (centres unmarked) [Example 131, 1-Cyclopropyl-6-fluoro-7-[3-(fluoromethyl)-1-piperazinyl]-1,4-dihydro-4-oxo-3-quinolinecarboxylic acid] | 0.06 µg/mL (≈ 0.165 µM) | 0.015 µg/mL (≈ 0.0413 µM) | 0.06 µg/mL (≈ 0.165 µM) | 0.06 µg/mL (≈ 0.165 µM) | 0.12 µg/mL (≈ 0.33 µM) | 0.5 µg/mL (≈ 1.38 µM) | 0.25 µg/mL (≈ 0.688 µM) | 0.12 µg/mL (≈ 0.33 µM) | 0.12 µg/mL (≈ 0.33 µM) | 1 µg/mL (≈ 2.75 µM) | 1 µg/mL (≈ 2.75 µM) | 1 µg/mL (≈ 2.75 µM) | 0.015 µg/mL (≈ 0.0413 µM) | 0.03 µg/mL (≈ 0.0826 µM) | 0.5 µg/mL (≈ 1.38 µM) | 4 µg/mL (≈ 11 µM) | 0.06 µg/mL (≈ 0.165 µM) | 2 µg/mL (≈ 5.5 µM) | 0.25 µg/mL (≈ 0.688 µM) | 0.5 µg/mL (≈ 1.38 µM) | MIC [8]: 0.015 µg/mL (≈ 0.0413 µM); MIC [30]: 0.5 µg/mL (≈ 1.38 µM); MIC (Citrobacter div. K 82-24): 0.06 µg/mL (≈ 0.165 µM); MIC [21]: 0.03 µg/mL (≈ 0.0826 µM); MIC [22]: 8 µg/mL (≈ 22 µM); MIC [23]: 2 µg/mL (≈ 5.5 µM); MIC [24]: 0.06 µg/mL (≈ 0.165 µM); MIC [25]: 0.06 µg/mL (≈ 0.165 µM); MIC [26]: 0.12 µg/mL (≈ 0.33 µM); MIC [27]: 2 µg/mL (≈ 5.5 µM); MIC [28]: 2 µg/mL (≈ 5.5 µM); MIC [29]: 16 µg/mL (≈ 44 µM) |
